The source made the active and inactive calls.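 The calls were made as follows: active = compounds whose fitted half-maximal concentration is at most ten times their top valid tested dose; inconclusive = flat fit showing moderate inhibition, or poor fit quality; inactive = the rest.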
Target: Aurora kinase B (Homo sapiens) (UniProt Q96GD4)
Experiment: AURKB enzyme activity inhibitors – biochemical, scintillation, dry powder, counter-screen for STK33 inhibitor project, dose response (AID 588757)
Conditions: ATP at Km, gamma-32P-ATP, 40 min room temperature, P30 filtermat scintillation counting; for activity change, negative = inhibition: at 3 µM (top of the series)

Aurora kinase B (Homo sapiens), sequence (Q96GD4 whole entry, looked up): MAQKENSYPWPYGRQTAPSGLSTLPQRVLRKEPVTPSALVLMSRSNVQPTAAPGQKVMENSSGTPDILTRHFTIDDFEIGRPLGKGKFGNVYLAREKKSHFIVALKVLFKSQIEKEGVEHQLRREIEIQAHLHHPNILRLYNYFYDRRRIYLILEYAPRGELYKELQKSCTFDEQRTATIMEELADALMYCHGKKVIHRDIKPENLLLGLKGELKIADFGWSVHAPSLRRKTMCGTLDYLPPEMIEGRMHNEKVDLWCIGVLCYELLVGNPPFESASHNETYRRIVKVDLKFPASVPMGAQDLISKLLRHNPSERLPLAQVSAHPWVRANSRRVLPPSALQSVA

For `COC(=O)c1ccc(COc2ccccc2/C=C/C(=O)c2ccc(OCC(=O)O)cc2)cc1`, the “activity change, negative = inhibition” value was “inactive”.

For `CCOc1ccccc1C(=O)Nc1cc(Cl)ccc1O`, the AC50 was > 3 µM (inactive).

In the case of `COc1cc(/C=N/n2c(-c3ccccc3)n[nH]c2=S)ccc1O`, the “activity change, negative = inhibition” value is reported as “inactive”.

In the case of `COc1cc(C(=O)NC2CCN(C)CC2)ccc1Nc1ncc2c(n1)N(C1CCC(O)CC1)CCC(=O)N2C` (centres undefined), the “activity change, negative = inhibition” value is reported as “inactive”.

For `Nc1nc(-c2cc(O)ccc2[N+](=O)[O-])cc(-c2ccccc2)c1[N+](=O)[O-]`, the AC50 was 0.0126 µM.

With `O=C(Nc1ccccc1-c1nc2ccccc2[nH]c1=O)c1cccs1` the “activity change, negative = inhibition” value was “inactive”.

With `CC(C)n1cnc2c(Nc3cccc(Cl)c3)nc(NCCO)nc21` the AC50 was 1.47 µM.

For `Cc1ncc(/C=C2\C(=O)Nc3ccccc32)[nH]1`, the AC50 was 0.346 µM.

In the case of `O=S(=O)(c1cccc2cnccc12)N1CCCNCC1`, the “activity change, negative = inhibition” value is reported as “inactive”.

`O=C(Nc1ccccc1-c1ccccc1)c1ccc(Br)o1` gave an AC50 of 1.66 µM.

`CC(=O)N(C)c1ccc(N=Cc2c(O)ccc3ccccc23)cc1` was tested, and the “activity change, negative = inhibition” value was “inactive”.

In the case of `COc1cc(/C=C2\SC(N)=NC2=O)ccc1O`, the “activity change, negative = inhibition” value is reported as “inactive”.

With `Oc1ccc(Nc2nc(-c3ccccc3O)nc3ccccc23)cc1` the AC50 was 0.142 µM.

`CCCn1c(NC(=O)c2cccc(S(=O)(=O)N3CCCC3)c2)nc2ccccc21` was tested, and the AC50 was 0.17 µM.
